Measurements: patent US20240307362A1 (priority 2019, published 2024)
“And” between values parts separate entries of the source, which are not always exact repeats. Equal values may be shown once. Read-outs that look alike come from different tables or passages of the source.

Key:
human Bub1 = human Bub1 (Homo sapiens (Human), UniProt O43683); assay: Bub1 high ATP kinase assay (TR-FRET); assay type: biochemical
Description: Bub1-inhibitory activity of compounds of the present invention at a high ATP concentration was quantified employing the Bub1 TR-FRET high ATP kinase assay as described in the following paragraphs.
N-terminally His6-tagged recombinant catalytic domain of human Bub1 (amino acids 704-1085), expressed in insect cells (Hi5) and purified by Ni-NTA affinity chromatography and subsequent size exclusion chromatography, was used as enzyme.

Ba/F3-EGFR-insSVD = assay: Ba/F3 cell survival assay, EGFR-insSVD; assay type: cell-based
Method: (§1) 293T cells from ATCC were transfected with pBABEpuro expression constructs for WT EGFR or EGFR-insSVD and pCL-Eco packaging vector using Fugene-6 transfection reagent from Promega. Plates were incubated at 37° C. for 48 h. Retrovirus was harvested by filtering the media supernatant through a 0.45 μm filter.
(§2) Ba/F3 cells purchased from DSMZ were grown in RPMI+10% FBS+10 ng/mL IL-3 and infected with filtered retroviral supernatant at a 1:2 dilution. Polybrene was added to a concentration of 8 μg/mL, plates were spun for 90 min, and incubated overnight at 37° C. 2 μg/mL puromycin was added to the infected cells 24 h after infection and cells were continually grown in the presence of puromycin and 10 ng/mL IL-3. Following stably expressing Ba/F3 cell lines were generated: Ba/F3-EGFR-WT, Ba/F3-EGFR-insSVD, (Ba/F3-vector-control).
For cell survival assays, Ba/F3 cells were grown to a density of 1-2 million cells per mL, spun down and resuspended in media without IL-3, and replated at a concentration 200,000-500,000 cells per mL. The cells ectopically expressing WT EGFR or EGFR-insSVD were plated with 10 ng/mL Millipore Culture grade EGF. The cells ectopically expressing pBABEpuro empty vector were plated with 10 ng/mL IL-3.
2 days later, cells were plated in 50 μL in a 384 well plate at a concentration of 4000 cells per well for cells assayed in the absence of IL-3 and 2000 cells per well for cells assayed in the presence of IL-3. 100 nL of compound was added to each well using a 100 nL pin head, and plates were incubated at 37° C. for 48 h.
Cell viability was measured by adding 20 μL of Cell Titer-Glo Luminescent Cell Viability Reagent diluted 1:3 in PBS. Plates were sealed with Perkin Elmer Top-Seal, inverted several times to mix, and immediately centrifuged at 1000 rpm for 2 min. Plates were incubated in low light conditions for 8-10 min and luminescence was measured.

Ba/F3-EGFR-WT = assay: Ba/F3 cell survival assay, WT EGFR; assay type: cell-based
Method: as §1, §2
The cells ectopically expressing WT EGFR or EGFR-insSVD were plated with 10 ng/mL Millipore Culture grade EGF. The cells ectopically expressing pBABEpuro empty vector were plated with 10 ng/mL IL-3.
100 nL of compound was added to each well using a 100 nL pin head, and plates were incubated at 37° C. for 48 h.
Cell viability was measured by adding 20 μL of Cell Titer-Glo Luminescent Cell Viability Reagent diluted 1:3 in PBS. Plates were sealed with Perkin Elmer Top-Seal, inverted several times to mix, and immediately centrifuged at 1000 rpm for 2 min.

[1] = read-out: Bub1 high ATP (2 mM) IC50, 2 mM ATP
[2] = read-out: BA/F3 (insSVD) IC50, cell viability, Cell Titer-Glo, 48 h, with 10 ng/mL EGF, without IL-3
[3] = read-out: BA/F3 (wild type) IC50, cell viability, Cell Titer-Glo, 48 h, with 10 ng/mL EGF, without IL-3
[4] = Mus musculus, BaF3, 48 h, read-out: BA/F3 (insSVD) IC50, cell viability, Cell Titer-Glo, 48 h, with 10 ng/mL EGF, without IL-3
[5] = Mus musculus, BaF3, 48 h, read-out: BA/F3 (wild type) IC50, cell viability, Cell Titer-Glo, 48 h, with 10 ng/mL EGF, without IL-3
[6] = Bub1 high ATP (2 mM) IC50, 2 mM ATP

Chain of human Bub1 (O43683 704-1085): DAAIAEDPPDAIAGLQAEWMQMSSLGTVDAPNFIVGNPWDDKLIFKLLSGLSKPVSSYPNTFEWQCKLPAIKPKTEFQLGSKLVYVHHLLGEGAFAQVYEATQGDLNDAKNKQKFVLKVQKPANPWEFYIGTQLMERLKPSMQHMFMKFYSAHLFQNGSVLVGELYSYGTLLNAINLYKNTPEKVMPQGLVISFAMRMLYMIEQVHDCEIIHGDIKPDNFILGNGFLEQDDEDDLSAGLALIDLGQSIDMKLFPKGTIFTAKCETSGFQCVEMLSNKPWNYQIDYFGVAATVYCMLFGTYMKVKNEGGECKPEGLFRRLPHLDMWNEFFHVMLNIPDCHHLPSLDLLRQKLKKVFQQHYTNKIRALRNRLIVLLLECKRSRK

| Structure (SMILES) | IC50 (human Bub1; [1]) | IC50 (Ba/F3-EGFR-insSVD; [2]) | IC50 (Ba/F3-EGFR-WT; [3]) | IC50 (Ba/F3-EGFR-insSVD; [4]) | IC50 (Ba/F3-EGFR-WT; [5]) | IC50 (human Bub1; [6]) |
| --- | --- | --- | --- | --- | --- | --- |
| Cc1cccc(Nc2c(-c3ccncc3OCC3CCO3)[nH]c3c2C(=O)NCC3)c1Cl (single isomer, unassigned; (+)) [Example 38, (+)-3-(2-chloro-3-methylanilino)-2-{3-[(oxetan-2-yl)methoxy]pyridin-4-yl}-1,5,6,7-tetrahydro-4H-pyrrolo[3,2-c]pyridin-4-one] | > 20000 nM | 48.8 nM | 628 nM | – | – | – |
| O=C1NCCc2[nH]c(-c3ccncc3OCCC3CCO3)c(Nc3cccc(Cl)c3Cl)c21 (single isomer, unassigned) [Example 63, 3-(2,3-dichloroanilino)-2-(3-{2-[oxetan-2-yl]ethoxy}pyridin-4-yl)-1,5,6,7-tetrahydro-4H-pyrrolo[3,2-c]pyridin-4-one] | 5510 nM | – | – | 31.4 nM | 567 nM | – |
| CC1(C)COC1COc1cnccc1-c1[nH]c2c(c1Nc1cccc(Cl)c1OC(F)F)C(=O)NCC2 (single isomer, unassigned) [Example 72, 3-[3-chloro-2-(difluoromethoxy)anilino]-2-(3-{[3,3-dimethyloxetan-2-yl]methoxy}pyridin-4-yl)-1,5,6,7-tetrahydro-4H-pyrrolo[3,2-c]pyridin-4-one] | – | 436 nM | 2740 nM | – | – | > 20000 nM |
| COc1c(F)cccc1Nc1c(-c2ccncc2OCC2(F)COC2)[nH]c2c1C(=O)NCC2 [Example 61, 3-(3-fluoro-2-methoxyanilino)-2-{3-[(3-fluorooxetan-3-yl)methoxy]pyridin-4-yl}-1,5,6,7-tetrahydro-4H-pyrrolo[3,2-c]pyridin-4-one] | > 20000 nM | – | – | 445 nM | 3570 nM | – |
| Cc1c(Cl)cccc1Nc1c(-c2ccncc2OC[C@H]2CCO2)[nH]c2c1C(=O)NCC2 [Example 9, 3-(3-chloro-2-methylanilino)-2-(3-{[(2R)-oxetan-2-yl]methoxy}pyridin-4-yl)-1,5,6,7-tetrahydro-4H-pyrrolo[3,2-c]pyridin-4-one] | 1570 nM | – | – | 269 nM | 1200 nM | – |
| COc1c(Cl)cccc1Nc1c(-c2ccncc2OCC2(C)CCN2C)[nH]c2c1C(=O)NCC2 (stereo not drawn) [Example 31, 3-(3-chloro-2-methoxyanilino)-2-{3-[(1,2-dimethylazetidin-2-yl)methoxy]pyridin-4-yl}-1,5,6,7-tetrahydro-4H-pyrrolo[3,2-c]pyridin-4-one] | 7540 nM | – | – | 23.7 nM | 391 nM | – |
| COc1c(Cl)cccc1Nc1c(-c2ccncc2OCC2(C)CCN2CC(F)(F)F)[nH]c2c1C(=O)NCC2 (stereo not drawn) [Example 32, 3-(3-chloro-2-methoxyanilino)-2-(3-{[2-methyl-1-(2,2,2-trifluoroethyl)azetidin-2-yl]methoxy}pyridin-4-yl)-1,5,6,7-tetrahydro-4H-pyrrolo[3,2-c]pyridin-4-one] | > 20000 nM | – | – | 12.2 nM | 298 nM | – |
| COc1c(F)cccc1Nc1c(-c2ccncc2OCC2OCC2(C)C)[nH]c2c1C(=O)NCC2 (racemic) [Example 52, 2-{3-[(3,3-dimethyloxetan-2-yl)methoxy]pyridin-4-yl}-3-(3-fluoro-2-methoxyanilino)-1,5,6,7-tetrahydro-4H-pyrrolo[3,2-c]pyridin-4-one] | > 20000 nM | – | – | 38.1 nM | 535 nM | – |
| COc1c(Br)cccc1Nc1c(-c2ccncc2OCC2CCO2)[nH]c2c1C(=O)NCC2 (racemic) [Example 33, 3-(3-bromo-2-methoxyanilino)-2-{3-[(oxetan-2-yl)methoxy]pyridin-4-yl}-1,5,6,7-tetrahydro-4H-pyrrolo[3,2-c]pyridin-4-one] | 8060 nM | – | – | 32.8 nM | 1120 nM | – |
| COc1c(Cl)cc(F)cc1Nc1c(-c2ccncc2OCC2CCO2)[nH]c2c1C(=O)NCC2 (single isomer, unassigned) [Example 66, 3-(3-chloro-5-fluoro-2-methoxyanilino)-2-(3-{[oxetan-2-yl]methoxy}pyridin-4-yl)-1,5,6,7-tetrahydro-4H-pyrrolo[3,2-c]pyridin-4-one] | – | 140 nM | 1500 nM | – | – | > 20000 nM |
| COc1c(Cl)cccc1Nc1c(-c2ccncc2OCC2OCC2(C)C)[nH]c2c1C(=O)NCC2 (racemic) [Example 49, 3-(3-chloro-2-methoxyanilino)-2-{3-[(3,3-dimethyloxetan-2-yl)methoxy]pyridin-4-yl}-1,5,6,7-tetrahydro-4H-pyrrolo[3,2-c]pyridin-4-one] | > 20000 nM | – | – | 12.5 nM | 426 nM | – |
| COc1c(F)cccc1Nc1c(-c2ccncc2OCCC2CCO2)[nH]c2c1C(=O)NCC2 (single isomer, unassigned) [Example 45, 3-(3-fluoro-2-methoxyanilino)-2-{3-[2-(oxetan-2-yl)ethoxy]pyridin-4-yl}-1,5,6,7-tetrahydro-4H-pyrrolo[3,2-c]pyridin-4-one] | – | 46.4 nM | 746 nM | – | – | 12700 nM |
| CCC1(COc2cnccc2-c2[nH]c3c(c2Nc2cccc(Cl)c2OC)C(=O)NCC3)COC1 [Example 22, 3-(3-chloro-2-methoxyanilino)-2-{3-[(3-ethyloxetan-3-yl)methoxy]pyridin-4-yl}-1,5,6,7-tetrahydro-4H-pyrrolo[3,2-c]pyridin-4-one] | 3830 nM | – | – | 57.2 nM | 852 nM | – |
| Cc1cccc(Nc2c(-c3ccncc3OCC3OCC3(C)C)[nH]c3c2C(=O)NCC3)c1Cl (single isomer, unassigned; (-)) [Example 60, (−)-3-(2-chloro-3-methylanilino)-2-{3-[(3,3-dimethyloxetan-2-yl)methoxy]pyridin-4-yl}-1,5,6,7-tetrahydro-4H-pyrrolo[3,2-c]pyridin-4-one] | 18800 nM and > 20000 nM | > 1000 nM | 2130 nM | – | – | – |
| Cc1cccc(Nc2c(-c3ccncc3OCC3OCC3(C)C)[nH]c3c2C(=O)NCC3)c1Cl (racemic) [Example 58, 3-(2-chloro-3-methylanilino)-2-{3-[(3,3-dimethyloxetan-2-yl)methoxy]pyridin-4-yl}-1,5,6,7-tetrahydro-4H-pyrrolo[3,2-c]pyridin-4-one] | > 20000 nM | – | – | 106 nM | 1430 nM | – |
| O=C1NCCc2[nH]c(-c3ccncc3OCC3CCO3)c(Nc3cccc(Cl)c3Cl)c21 (single isomer, unassigned; (+)) [Example 11, (+)-3-(2,3-dichloroanilino)-2-{3-[(oxetan-2-yl)methoxy]pyridin-4-yl}-1,5,6,7-tetrahydro-4H-pyrrolo[3,2-c]pyridin-4-one] | > 20000 nM | – | – | 147 nM | 767 nM | – |
| Cc1c(Cl)cc(F)cc1Nc1c(-c2ccncc2OCC2CCO2)[nH]c2c1C(=O)NCC2 (single isomer, unassigned) [Example 42, 3-(3-chloro-5-fluoro-2-methylanilino)-2-{3-[(oxetan-2-yl)methoxy]pyridin-4-yl}-1,5,6,7-tetrahydro-4H-pyrrolo[3,2-c]pyridin-4-one] | – | 72.5 nM | 553 nM | – | – | > 20000 nM |
| Cc1c(Cl)cccc1Nc1c(-c2ccncc2OC[C@@H]2CCO2)[nH]c2c1C(=O)NCC2 [Example 8, 3-(3-chloro-2-methylanilino)-2-(3-{[(2S)-oxetan-2-yl]methoxy}pyridin-4-yl)-1,5,6,7-tetrahydro-4H-pyrrolo[3,2-c]pyridin-4-one] | 7610 nM | – | – | 12.5 nM | 230 nM | – |
| O=C1NCCc2[nH]c(-c3ccncc3OCC3COC3)c(Nc3cccc(Cl)c3OC(F)F)c21 [Example 17, 3-[3-chloro-2-(difluoromethoxy)anilino]-2-{3-[(oxetan-3-yl)methoxy]pyridin-4-yl}-1,5,6,7-tetrahydro-4H-pyrrolo[3,2-c]pyridin-4-one] | 7520 nM | – | – | 177 nM | 1740 nM | – |
